# Results reported in PubChem BioAssay (NCI).
#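 Values below derive from 48-hour exposures of cells grown in 96-well plates, with endpoints linearly interpolated between the two concentrations bracketing the appropriate inhibition level. Abbreviation: GI50, concentration required for 50% inhibition of growth. TGI is the concentration that stops growth completely.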
# How the values were obtained:
# Test in all cases: DTP human tumour cell line panel, 48 h
# 786-0 renal = system: 786-0 renal
# A549 NSCLC = system: A549 NSCLC
# ACHN renal = system: ACHN renal
# BT-549 breast = system: BT-549 breast
# CAKI-1 renal = system: CAKI-1 renal
# COLO 205 colon = system: COLO 205 colon
# DU-145 prostate = system: DU-145 prostate
# EKVX NSCLC = system: EKVX NSCLC
# HCC-2998 colon = system: HCC-2998 colon
# HCT-116 colon = system: HCT-116 colon
# HL-60(TB) leukemia = system: HL-60(TB) leukemia
# HOP-62 NSCLC = system: HOP-62 NSCLC
# HOP-92 NSCLC = system: HOP-92 NSCLC
# HS 578T breast = system: HS 578T breast
# HT29 colon = system: HT29 colon
# IGROV1 ovarian = system: IGROV1 ovarian
# K-562 leukemia = system: K-562 leukemia
# KM12 colon = system: KM12 colon
# LOX IMVI melanoma = system: LOX IMVI melanoma
# M14 melanoma = system: M14 melanoma
# MALME-3M melanoma = system: MALME-3M melanoma
# MCF7 breast = system: MCF7 breast
# MDA-MB-231 breast = system: MDA-MB-231 breast
# MDA-MB-435 = system: MDA-MB-435
# MDA-N = system: MDA-N
# MOLT-4 leukemia = system: MOLT-4 leukemia
smiles,measurement,setting,value
COc1cc(O)c2c(=O)c(OC)c(-c3ccc(OC)c(OC)c3)oc2c1.[Co],TGI,786-0 renal,> 100 µM
same,TGI,A549 NSCLC,> 100 µM
same,GI50,ACHN renal,56.9 µM
same,TGI,ACHN renal,> 100 µM
same,TGI,BT-549 breast,> 100 µM
same,TGI,CAKI-1 renal,> 100 µM
same,TGI,COLO 205 colon,> 100 µM
same,GI50,DU-145 prostate,> 100 µM
same,TGI,DU-145 prostate,> 100 µM
same,GI50,EKVX NSCLC,> 100 µM
same,TGI,EKVX NSCLC,> 100 µM
same,GI50,HCC-2998 colon,> 100 µM
same,TGI,HCC-2998 colon,> 100 µM
same,GI50,HCT-116 colon,61.6 µM
same,TGI,HCT-116 colon,> 100 µM
same,TGI,HL-60(TB) leukemia,> 100 µM
same,GI50,HOP-62 NSCLC,34.5 µM
same,TGI,HOP-62 NSCLC,> 100 µM
same,GI50,HOP-92 NSCLC,31.8 µM
same,TGI,HOP-92 NSCLC,> 100 µM
same,TGI,HS 578T breast,> 100 µM
same,GI50,HT29 colon,> 100 µM
same,TGI,HT29 colon,> 100 µM
same,GI50,IGROV1 ovarian,> 100 µM
same,TGI,IGROV1 ovarian,> 100 µM
same,GI50,K-562 leukemia,75.5 µM
same,TGI,K-562 leukemia,> 100 µM
same,GI50,KM12 colon,> 100 µM
same,TGI,KM12 colon,> 100 µM
same,GI50,LOX IMVI melanoma,> 100 µM
same,TGI,LOX IMVI melanoma,> 100 µM
same,GI50,M14 melanoma,> 100 µM
same,TGI,M14 melanoma,> 100 µM
same,GI50,MALME-3M melanoma,51.4 µM
same,TGI,MALME-3M melanoma,> 100 µM
same,GI50,MCF7 breast,> 100 µM
same,TGI,MCF7 breast,> 100 µM
same,GI50,MDA-MB-231 breast,18.1 µM
same,TGI,MDA-MB-231 breast,> 100 µM
same,TGI,MDA-MB-435,> 100 µM
same,TGI,MDA-N,> 100 µM
same,GI50,MOLT-4 leukemia,9.92 µM
